Measured values reported in patent US7138361B2, “Herbicidal heterocycles” (E. I. du Pont de Nemours and Company, priority 2000, dated 2006).

Experiments:
Format in all cases: in vivo
[1] = system: Surinam grass (Brachiaria decumbens); experiment: Test B postemergence; settings: 13 to 15 days
Method in brief: (§1)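 Greenhouse test: chemicals are formulated in a surfactant-containing non-phytotoxic solvent and applied either preemergence to planted seeds or postemergence to plants 2 to 18 cm tall. Response is rated visually versus controls after 13 to 15 days, 0 meaning no effect and 100 complete control.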

[2] = system: barnyardgrass (Echinochloa crus-galli); experiment: Test B postemergence; settings: 13 to 15 days
Method in brief: as §1

[3] = system: cocklebur (Xanthium strumarium); experiment: Test B postemergence; settings: 13 to 15 days
Method in brief: as §1

[4] = system: corn (Zea mays); experiment: Test B postemergence; settings: 13 to 15 days
Method in brief: as §1

[5] = system: crabgrass (Digitaria sanguinalis); experiment: Test B postemergence; settings: 13 to 15 days
Method in brief: as §1

[6] = system: giant foxtail (Setaria faberii); experiment: Test B postemergence; settings: 13 to 15 days
Method in brief: as §1

[7] = system: morning glory (Ipomoea hederacea); experiment: Test B postemergence; settings: 13 to 15 days
Method in brief: as §1

[8] = system: pigweed (Amaranthus retroflexus); experiment: Test B postemergence; settings: 13 to 15 days
Method in brief: as §1

[9] = system: velvetleaf (Abutilon theophrasti); experiment: Test B postemergence; settings: 13 to 15 days
Method in brief: as §1

[10] = system: wheat (Triticum aestivum); experiment: Test B postemergence; settings: 13 to 15 days
Method in brief: as §1

[11] = system: wild oat (Avena fatua); experiment: Test B postemergence; settings: 13 to 15 days
Method in brief: as §1

[12] = system: Nightshade; experiment: Test C preemergence
[13] = system: Sunflower; experiment: Test C preemergence
[14] = system: common ragweed (Ambrosia elatior); experiment: Test C preemergence; settings: for Plant response rating (0 to 100), Ragweed, Common: Rate 250 g/ha, visual evaluation after 12 to 14 days
Method in brief: (§2)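 Response scores (0 no effect to 100 complete control) came from visual comparison with untreated controls 12 to 14 days after treatment. Preemergence application was made to seeded soil; postemergence, to plants at the 1- to 4-leaf stage.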

[15] = system: corn (Zea mays); experiment: Test C preemergence; settings: for Plant response rating (0 to 100), Corn: Rate 250 g/ha, visual evaluation after 12 to 14 days
Method in brief: as §2

[16] = system: goosegrass (Eleusine indica); experiment: Test C preemergence; settings: for Plant response rating (0 to 100), Goosegrass: Rate 250 g/ha, visual evaluation after 12 to 14 days
Method in brief: as §2

[17] = system: johnsongrass (Sorghum halepense); experiment: Test C preemergence; settings: for Plant response rating (0 to 100), Johnsongrass: Rate 250 g/ha, visual evaluation after 12 to 14 days
Method in brief: as §2

[18] = system: lambsquarters (Chenopodium album); experiment: Test C preemergence; settings: for Plant response rating (0 to 100), Lambsquarters: Rate 250 g/ha, visual evaluation after 12 to 14 days
Method in brief: as §2

[19] = system: morningglory (Ipomoea hederacea); experiment: Test C preemergence; settings: for Plant response rating (0 to 100), Morningglory: Rate 250 g/ha, visual evaluation after 12 to 14 days
Method in brief: as §2

[20] = system: velvetleaf (Abutilon theophrasti); experiment: Test C preemergence; settings: for Plant response rating (0 to 100), Velvetleaf: Rate 250 g/ha, visual evaluation after 12 to 14 days
Method in brief: as §2

[21] = system: yellow nutsedge (Cyperus esculentus); experiment: Test C preemergence; settings: for Plant response rating (0 to 100), Nutsedge: Rate 250 g/ha, visual evaluation after 12 to 14 days
Method in brief: as §2

[22] = system: Sunflower; experiment: Test C preemergence; settings: Rate 250 g/ha, visual evaluation after 12 to 14 days
[23] = Rate 125 g/ha, scale 0 (no effect) to 100 (complete control)
[24] = Rate 500 g/ha, scale 0 to 100, 0 is no effect, 100 is complete control
[25] = Rate 62 g/ha, scale 0 to 100, 0 no effect, 100 complete control
[26] = Rate 125 g/ha, scale 0 to 100, 0 no effect, 100 complete control
[27] = Preemergence, Rate 500 g/ha, scale 0 to 100
[28] = preemergence, Rate 125 g/ha, scale 0 to 100, 0 no effect, 100 complete control

SMILES: CCC(C)c1ccn(C2SCN(c3cccc(OC(F)(F)F)c3)C2=O)n1 (stereo not drawn) [Compound 40]
- Plant response rating, Surinam grass [1, 23]: 0
- Plant response rating, Surinam grass [1, 24]: 0
- Plant response rating, Barnyardgrass [2, 23]: 90
- Plant response rating, Barnyardgrass [2, 24]: 100
- Plant response rating, Cocklebur [3, 23]: 30
- Plant response rating, Cocklebur [3, 24]: 50
- Plant response rating, Corn [4, 23]: 0
- Plant response rating, Corn [4, 24]: 50
- Plant response rating, Crabgrass [5, 23]: 60
- Plant response rating, Crabgrass [5, 24]: 90
- Plant response rating, Foxtail, Giant [6, 23]: 70
- Plant response rating, Foxtail, Giant [6, 24]: 90
- Plant response rating, Morningglory [7, 23]: 10
- Plant response rating, Morningglory [7, 24]: 20
- Plant response rating, Pigweed [8, 23]: 40
- Plant response rating, Pigweed [8, 24]: 80
- Plant response rating, Velvetleaf [9, 23]: 0
- Plant response rating, Velvetleaf [9, 24]: 0
- Plant response rating, Wheat [10, 23]: 0
- Plant response rating, Wheat [10, 24]: 0
- Plant response rating, Wild Oat [11, 23]: 0
- Plant response rating, Wild Oat [11, 24]: 0
- Plant response rating, Nightshade [12, 25]: 0
- Plant response rating, Nightshade [12, 26]: 0
- Plant response rating, Nightshade ([12]; Rate 500 g/ha, scale 0 to 100): 70
- Plant response rating, Sunflower [13, 25]: 0
- Plant response rating, Sunflower ([13]; Rate 500 g/ha, scale 0 to 100): 40
- Plant response rating, Ragweed, Common [14, 27]: 70
- Plant response rating, Ragweed, Common [14, 25]: 0
- Plant response rating (0 to 100), Ragweed, Common ([14]; preemergence): 30
- Plant response rating, Ragweed, Common [14, 28]: 0
- Plant response rating, Corn [15, 27]: 90
- Plant response rating, Corn [15, 25]: 0
- Plant response rating (0 to 100), Corn ([15]; preemergence): 50
- Plant response rating, Corn [15, 28]: 20
- Plant response rating, Goosegrass [16, 27]: 100
- Plant response rating, Goosegrass [16, 25]: 90
- Plant response rating (0 to 100), Goosegrass ([16]; preemergence): 100
- Plant response rating, Goosegrass [16, 28]: 100
- Plant response rating, Johnsongrass [17, 27]: 100
- Plant response rating, Johnsongrass [17, 25]: 50
- Plant response rating (0 to 100), Johnsongrass ([17]; preemergence): 100
- Plant response rating, Johnsongrass [17, 28]: 100
- Plant response rating, Lambsquarters [18, 27]: 100
- Plant response rating, Lambsquarters [18, 25]: 100
- Plant response rating (0 to 100), Lambsquarters ([18]; preemergence): 100
- Plant response rating, Lambsquarters [18, 28]: 100
- Plant response rating, Morningglory [19, 27]: 0
- Plant response rating, Morningglory [19, 25]: 0
- Plant response rating (0 to 100), Morningglory ([19]; preemergence): 0
- Plant response rating, Morningglory [19, 28]: 0
- Plant response rating, Velvetleaf [20, 27]: 50
- Plant response rating, Velvetleaf [20, 25]: 0
- Plant response rating (0 to 100), Velvetleaf ([20]; preemergence): 30
- Plant response rating, Velvetleaf [20, 28]: 0
- Plant response rating, Nutsedge [21, 27]: 60
- Plant response rating, Nutsedge [21, 25]: 0
- Plant response rating (0 to 100), Nutsedge ([21]; preemergence): 50
- Plant response rating, Nutsedge [21, 28]: 0
- Plant response rating (0 to 100), Sunflower [22]: 30

SMILES: CC(C)c1ccn(C2SCN(c3cccc(OC(F)F)c3)C2=O)n1 (stereo not drawn) [Compound 44]
- Plant response rating, Surinam grass [1, 23]: 0
- Plant response rating, Surinam grass [1, 24]: 0
- Plant response rating, Barnyardgrass [2, 23]: 40
- Plant response rating, Barnyardgrass [2, 24]: 100
- Plant response rating, Cocklebur [3, 23]: 20
- Plant response rating, Cocklebur [3, 24]: 70
- Plant response rating, Corn [4, 23]: 0
- Plant response rating, Corn [4, 24]: 20
- Plant response rating, Crabgrass [5, 23]: 0
- Plant response rating, Crabgrass [5, 24]: 40
- Plant response rating, Foxtail, Giant [6, 23]: 0
- Plant response rating, Foxtail, Giant [6, 24]: 60
- Plant response rating, Morningglory [7, 23]: 0
- Plant response rating, Morningglory [7, 24]: 0
- Plant response rating, Pigweed [8, 23]: 0
- Plant response rating, Pigweed [8, 24]: 0
- Plant response rating, Velvetleaf [9, 23]: 0
- Plant response rating, Velvetleaf [9, 24]: 0
- Plant response rating, Wheat [10, 23]: 0
- Plant response rating, Wheat [10, 24]: 0
- Plant response rating, Wild Oat [11, 23]: 0
- Plant response rating, Wild Oat [11, 24]: 0
- Plant response rating, Nightshade [12, 25]: 0
- Plant response rating, Nightshade [12, 26]: 0
- Plant response rating, Nightshade ([12]; Rate 500 g/ha, scale 0 to 100): 30
- Plant response rating, Sunflower [13, 25]: 0
- Plant response rating, Sunflower ([13]; Rate 500 g/ha, scale 0 to 100): 30
- Plant response rating, Ragweed, Common [14, 27]: 50
- Plant response rating, Ragweed, Common [14, 25]: 0
- Plant response rating (0 to 100), Ragweed, Common ([14]; preemergence): 50
- Plant response rating, Ragweed, Common [14, 28]: 0
- Plant response rating, Corn [15, 27]: 70
- Plant response rating, Corn [15, 25]: 0
- Plant response rating (0 to 100), Corn ([15]; preemergence): 0
- Plant response rating, Corn [15, 28]: 0
- Plant response rating, Goosegrass [16, 27]: 100
- Plant response rating, Goosegrass [16, 25]: 90
- Plant response rating (0 to 100), Goosegrass ([16]; preemergence): 100
- Plant response rating, Goosegrass [16, 28]: 100
- Plant response rating, Johnsongrass [17, 27]: 100
- Plant response rating, Johnsongrass [17, 25]: 0
- Plant response rating (0 to 100), Johnsongrass ([17]; preemergence): 90
- Plant response rating, Johnsongrass [17, 28]: 60
- Plant response rating, Lambsquarters [18, 27]: 100
- Plant response rating, Lambsquarters [18, 25]: 100
- Plant response rating (0 to 100), Lambsquarters ([18]; preemergence): 100
- Plant response rating, Lambsquarters [18, 28]: 100
- Plant response rating, Morningglory [19, 27]: 40
- Plant response rating, Morningglory [19, 25]: 0
- Plant response rating (0 to 100), Morningglory ([19]; preemergence): 20
- Plant response rating, Morningglory [19, 28]: 0
- Plant response rating, Velvetleaf [20, 27]: 60
- Plant response rating, Velvetleaf [20, 25]: 0
- Plant response rating (0 to 100), Velvetleaf ([20]; preemergence): 20
- Plant response rating, Velvetleaf [20, 28]: 0
- Plant response rating, Nutsedge [21, 27]: 100
- Plant response rating, Nutsedge [21, 25]: 0
- Plant response rating (0 to 100), Nutsedge ([21]; preemergence): 60
- Plant response rating, Nutsedge [21, 28]: 30
- Plant response rating (0 to 100), Sunflower [22]: 20
